From ChEMBL document CHEMBL5608163, “Structure modification of anoplin for fighting resistant bacteria” (Eur J Med Chem, 2024) come the findings set out here.

Molecules are shown by their SMILES. ≈ marks a conversion by molar mass, not a printed value. Bridge positions count the residues as written; N and C are the ends. Peptide text beside a SMILES is read from it. I, II: the chains in the order shown. * marks the point of attachment. Lauroyl = CCCCCCCCCCCC(=O)*; Decanoyl = CCCCCCCCCC(=O)*; Octanoyl = CCCCCCCC(=O)*; Hexanoyl = CCCCCC(=O)*; Butyryl = CCCC(=O)*

In series [1] the test system is Erythrocyte. The series can be described thus: Hemolytic activity in human erythrocyte incubated for 70 mins by absorbance based assay. The series is classed as toxicity, cell-based. As to conditions: 1.167 h.
Series [2] relates to Escherichia coli. The series can be described thus: Antibacterial activity against Escherichia coli ATCC 25922 assessed as reduction in bacterial cell growth incubated for 16 to 24 hrs by CLSI-protocol based Mueller-Hinton Broth micro-dilution method. The series is classed as functional. Particulars: time 16-24 hrs. On the technique in general: Broth dilution looks for growth in wells or tubes with falling amounts of substance.

Series [3] deals with Klebsiella pneumoniae. Briefly: Antibacterial activity against Klebsiella pneumoniae ATCC 700603 assessed as reduction in bacterial cell growth incubated for 16 to 24 hrs by CLSI-protocol based Mueller-Hinton Broth micro-dilution method. The series is classed as functional. As to conditions: time 16-24 hrs.
The subject of series [4] is Staphylococcus aureus. Briefly: Antibacterial activity against Staphylococcus aureus ATCC 25923 assessed as reduction in bacterial cell growth incubated for 16 to 24 hrs by CLSI-protocol based Mueller-Hinton Broth micro-dilution method. It counts as functional. As to conditions: time 16-24 hrs.
The subject of series [5] is Bacillus subtilis. Briefly: Antibacterial activity against Bacillus subtilis ATCC 23857 assessed as reduction in bacterial cell growth incubated for 16 to 24 hrs by CLSI-protocol based Mueller-Hinton Broth micro-dilution method. As to conditions: time 16-24 hrs. It counts as functional.
Series [6] deals with Pseudomonas aeruginosa. The series can be described thus: Antibacterial activity against Pseudomonas aeruginosa ATCC 27853 assessed as reduction in bacterial cell growth incubated for 16 to 24 hrs by CLSI-protocol based Mueller-Hinton Broth micro-dilution method. It counts as functional. Particulars: time 16-24 hrs.

As to `CCCC(=O)NCC(=O)N[C@@H](CC(C)C)C(=O)N[C@@H](CC(C)C)C(=O)N[C@@H](CCCCN)C(=O)N[C@@H](CCCNC(=N)N)C(=O)N[C@H](C(=O)N[C@@H](CCCCN)C(=O)N[C@H](C(=O)N[C@@H](CC(C)C)C(=O)N[C@@H](CC(C)C)C(=O)NCCCC[C@H](NC(=O)[C@H](CCCCNC(=O)[C@H](CC(C)C)NC(=O)[C@H](CC(C)C)NC(=O)[C@@H](NC(=O)[C@H](CCCCN)NC(=O)[C@@H](NC(=O)[C@H](CCCNC(=N)N)NC(=O)[C@H](CCCCN)NC(=O)[C@H](CC(C)C)NC(=O)[C@H](CC(C)C)NC(=O)CNC(=O)CCC)[C@@H](C)CC)[C@@H](C)O)NC(=O)[C@H](CC(C)C)NC(=O)[C@H](CC(C)C)NC(=O)[C@@H](NC(=O)[C@H](CCCCN)NC(=O)[C@@H](NC(=O)[C@H](CCCNC(=N)N)NC(=O)[C@H](CCCCN)NC(=O)[C@H](CC(C)C)NC(=O)[C@H](CC(C)C)NC(=O)CNC(=O)CCC)[C@@H](C)CC)[C@@H](C)O)C(N)=O)[C@@H](C)O)[C@@H](C)CC` (I: Butyryl-GLLKRIKTLLKK-NH2 / II: Butyryl-GLLKRIKTLL / III: Butyryl-GLLKRIKTLL; amide I:11-III:C, I:12-II:C) [listing 1 of 2 here], the HC10 in series [1] is 3.18 µM.
Usually MIC stands for the smallest concentration in the dilution series that meets the test's criterion for growth inhibition. Turning to `CCCC(=O)NCC(=O)N[C@@H](CC(C)C)C(=O)N[C@@H](CC(C)C)C(=O)N[C@@H](CCCCN)C(=O)N[C@@H](CCCNC(=N)N)C(=O)N[C@H](C(=O)N[C@@H](CCCCN)C(=O)N[C@H](C(=O)N[C@@H](CC(C)C)C(=O)N[C@@H](CC(C)C)C(=O)NCCCC[C@H](NC(=O)[C@H](CCCCNC(=O)[C@H](CC(C)C)NC(=O)[C@H](CC(C)C)NC(=O)[C@@H](NC(=O)[C@H](CCCCN)NC(=O)[C@@H](NC(=O)[C@H](CCCNC(=N)N)NC(=O)[C@H](CCCCN)NC(=O)[C@H](CC(C)C)NC(=O)[C@H](CC(C)C)NC(=O)CNC(=O)CCC)[C@@H](C)CC)[C@@H](C)O)NC(=O)[C@H](CC(C)C)NC(=O)[C@H](CC(C)C)NC(=O)[C@@H](NC(=O)[C@H](CCCCN)NC(=O)[C@@H](NC(=O)[C@H](CCCNC(=N)N)NC(=O)[C@H](CCCCN)NC(=O)[C@H](CC(C)C)NC(=O)[C@H](CC(C)C)NC(=O)CNC(=O)CCC)[C@@H](C)CC)[C@@H](C)O)C(N)=O)[C@@H](C)O)[C@@H](C)CC` (I: Butyryl-GLLKRIKTLLKK-NH2 / II: Butyryl-GLLKRIKTLL / III: Butyryl-GLLKRIKTLL; amide I:11-III:C, I:12-II:C) [listing 2 of 2 here], the MIC in series [2] was determined as 4 µM (≈ 15.6 µg/mL); in series [3], 4 µM (≈ 15.6 µg/mL); in series [4], 4 µM (≈ 15.6 µg/mL); in series [5], 4 µM (≈ 15.6 µg/mL); in series [6] it was 2 µM (≈ 7.79 µg/mL).
`CCCCCCCCCC(=O)NCC(=O)N[C@@H](CC(C)C)C(=O)N[C@@H](CC(C)C)C(=O)N[C@@H](CCCCN)C(=O)N[C@@H](CCCNC(=N)N)C(=O)N[C@H](C(=O)N[C@@H](CCCCN)C(=O)N[C@H](C(=O)N[C@@H](CC(C)C)C(=O)N[C@@H](CC(C)C)C(=O)NCCCC[C@H](NC(=O)[C@H](CCCCNC(=O)[C@H](CC(C)C)NC(=O)[C@H](CC(C)C)NC(=O)[C@@H](NC(=O)[C@H](CCCCN)NC(=O)[C@@H](NC(=O)[C@H](CCCNC(=N)N)NC(=O)[C@H](CCCCN)NC(=O)[C@H](CC(C)C)NC(=O)[C@H](CC(C)C)NC(=O)CNC(=O)CCCCCCCCC)[C@@H](C)CC)[C@@H](C)O)NC(=O)[C@H](CC(C)C)NC(=O)[C@H](CC(C)C)NC(=O)[C@@H](NC(=O)[C@H](CCCCN)NC(=O)[C@@H](NC(=O)[C@H](CCCNC(=N)N)NC(=O)[C@H](CCCCN)NC(=O)[C@H](CC(C)C)NC(=O)[C@H](CC(C)C)NC(=O)CNC(=O)CCCCCCCCC)[C@@H](C)CC)[C@@H](C)O)C(N)=O)[C@@H](C)O)[C@@H](C)CC` (I: Decanoyl-GLLKRIKTLLKK-NH2 / II: Decanoyl-GLLKRIKTLL / III: Decanoyl-GLLKRIKTLL; amide I:11-III:C, I:12-II:C): the minimal inhibitory concentration (MIC) in series [2] was 128 µM (≈ 531 µg/mL); in series [3], 32 µM (≈ 133 µg/mL); in series [4], 128 µM (≈ 531 µg/mL); in series [5], 56 µM (≈ 232 µg/mL); in series [6], 32 µM (≈ 133 µg/mL).
As to `CC[C@H](C)[C@H](NC(=O)[C@H](CCCNC(=N)N)NC(=O)[C@H](CCCCN)NC(=O)[C@H](CC(C)C)NC(=O)[C@H](CC(C)C)NC(=O)CN)C(=O)N[C@@H](CCCCN)C(=O)N[C@H](C(=O)N[C@@H](CC(C)C)C(=O)N[C@@H](CC(C)C)C(=O)NCCCC[C@H](NC(=O)[C@H](CCCCNC(=O)[C@H](CC(C)C)NC(=O)[C@H](CC(C)C)NC(=O)[C@@H](NC(=O)[C@H](CCCCN)NC(=O)[C@@H](NC(=O)[C@H](CCCNC(=N)N)NC(=O)[C@H](CCCCN)NC(=O)[C@H](CC(C)C)NC(=O)[C@H](CC(C)C)NC(=O)CN)[C@@H](C)CC)[C@@H](C)O)NC(=O)[C@H](CC(C)C)NC(=O)[C@H](CC(C)C)NC(=O)[C@@H](NC(=O)[C@H](CCCCN)NC(=O)[C@@H](NC(=O)[C@H](CCCNC(=N)N)NC(=O)[C@H](CCCCN)NC(=O)[C@H](CC(C)C)NC(=O)[C@H](CC(C)C)NC(=O)CN)[C@@H](C)CC)[C@@H](C)O)C(N)=O)[C@@H](C)O` (I: H-GLLKRIKTLLKK-NH2 / II: H-GLLKRIKTLL / III: H-GLLKRIKTLL; amide I:11-III:C, I:12-II:C), the MIC was 8 µM (≈ 29.5 µg/mL) in series [2]; 4 µM (≈ 14.7 µg/mL) in series [3]; 4 µM (≈ 14.7 µg/mL) in series [4]; 4 µM (≈ 14.7 µg/mL) in series [5]; 4 µM (≈ 14.7 µg/mL) in series [6].
For `CCCCCC(=O)NCC(=O)N[C@@H](CC(C)C)C(=O)N[C@@H](CC(C)C)C(=O)N[C@@H](CCCCN)C(=O)N[C@@H](CCCNC(=N)N)C(=O)N[C@H](C(=O)N[C@@H](CCCCN)C(=O)N[C@H](C(=O)N[C@@H](CC(C)C)C(=O)N[C@@H](CC(C)C)C(=O)NCCCC[C@H](NC(=O)[C@H](CCCCNC(=O)[C@H](CC(C)C)NC(=O)[C@H](CC(C)C)NC(=O)[C@@H](NC(=O)[C@H](CCCCN)NC(=O)[C@@H](NC(=O)[C@H](CCCNC(=N)N)NC(=O)[C@H](CCCCN)NC(=O)[C@H](CC(C)C)NC(=O)[C@H](CC(C)C)NC(=O)CNC(=O)CCCCC)[C@@H](C)CC)[C@@H](C)O)NC(=O)[C@H](CC(C)C)NC(=O)[C@H](CC(C)C)NC(=O)[C@@H](NC(=O)[C@H](CCCCN)NC(=O)[C@@H](NC(=O)[C@H](CCCNC(=N)N)NC(=O)[C@H](CCCCN)NC(=O)[C@H](CC(C)C)NC(=O)[C@H](CC(C)C)NC(=O)CNC(=O)CCCCC)[C@@H](C)CC)[C@@H](C)O)C(N)=O)[C@@H](C)O)[C@@H](C)CC` (I: Hexanoyl-GLLKRIKTLLKK-NH2 / II: Hexanoyl-GLLKRIKTLL / III: Hexanoyl-GLLKRIKTLL; amide I:11-III:C, I:12-II:C), the MIC in series [2] was 16 µM (≈ 63.6 µg/mL); in series [3] it was 32 µM (≈ 127 µg/mL); in series [4] it was 16 µM (≈ 63.6 µg/mL); in series [5], 8 µM (≈ 31.8 µg/mL); in series [6] it was 8 µM (≈ 31.8 µg/mL).
Regarding `CCCCCCCCCCCC(=O)NCC(=O)N[C@@H](CC(C)C)C(=O)N[C@@H](CC(C)C)C(=O)N[C@@H](CCCCN)C(=O)N[C@@H](CCCNC(=N)N)C(=O)N[C@H](C(=O)N[C@@H](CCCCN)C(=O)N[C@H](C(=O)N[C@@H](CC(C)C)C(=O)N[C@@H](CC(C)C)C(=O)NCCCC[C@H](NC(=O)[C@H](CCCCNC(=O)[C@H](CC(C)C)NC(=O)[C@H](CC(C)C)NC(=O)[C@@H](NC(=O)[C@H](CCCCN)NC(=O)[C@@H](NC(=O)[C@H](CCCNC(=N)N)NC(=O)[C@H](CCCCN)NC(=O)[C@H](CC(C)C)NC(=O)[C@H](CC(C)C)NC(=O)CNC(=O)CCCCCCCCCCC)[C@@H](C)CC)[C@@H](C)O)NC(=O)[C@H](CC(C)C)NC(=O)[C@H](CC(C)C)NC(=O)[C@@H](NC(=O)[C@H](CCCCN)NC(=O)[C@@H](NC(=O)[C@H](CCCNC(=N)N)NC(=O)[C@H](CCCCN)NC(=O)[C@H](CC(C)C)NC(=O)[C@H](CC(C)C)NC(=O)CNC(=O)CCCCCCCCCCC)[C@@H](C)CC)[C@@H](C)O)C(N)=O)[C@@H](C)O)[C@@H](C)CC` (I: Lauroyl-GLLKRIKTLLKK-NH2 / II: Lauroyl-GLLKRIKTLL / III: Lauroyl-GLLKRIKTLL; amide I:11-III:C, I:12-II:C), the MIC in series [2] worked out at 64 µM (≈ 271 µg/mL); in series [3], 64 µM (≈ 271 µg/mL); in series [4], 64 µM (≈ 271 µg/mL); in series [5], 256 µM (≈ 1080 µg/mL); in series [6], 64 µM (≈ 271 µg/mL).
`CCCCCCCC(=O)NCC(=O)N[C@@H](CC(C)C)C(=O)N[C@@H](CC(C)C)C(=O)N[C@@H](CCCCN)C(=O)N[C@@H](CCCNC(=N)N)C(=O)N[C@H](C(=O)N[C@@H](CCCCN)C(=O)N[C@H](C(=O)N[C@@H](CC(C)C)C(=O)N[C@@H](CC(C)C)C(=O)NCCCC[C@H](NC(=O)[C@H](CCCCNC(=O)[C@H](CC(C)C)NC(=O)[C@H](CC(C)C)NC(=O)[C@@H](NC(=O)[C@H](CCCCN)NC(=O)[C@@H](NC(=O)[C@H](CCCNC(=N)N)NC(=O)[C@H](CCCCN)NC(=O)[C@H](CC(C)C)NC(=O)[C@H](CC(C)C)NC(=O)CNC(=O)CCCCCCC)[C@@H](C)CC)[C@@H](C)O)NC(=O)[C@H](CC(C)C)NC(=O)[C@H](CC(C)C)NC(=O)[C@@H](NC(=O)[C@H](CCCCN)NC(=O)[C@@H](NC(=O)[C@H](CCCNC(=N)N)NC(=O)[C@H](CCCCN)NC(=O)[C@H](CC(C)C)NC(=O)[C@H](CC(C)C)NC(=O)CNC(=O)CCCCCCC)[C@@H](C)CC)[C@@H](C)O)C(N)=O)[C@@H](C)O)[C@@H](C)CC` (I: Octanoyl-GLLKRIKTLLKK-NH2 / II: Octanoyl-GLLKRIKTLL / III: Octanoyl-GLLKRIKTLL; amide I:11-III:C, I:12-II:C): the MIC in series [2] was 32 µM (≈ 130 µg/mL); in series [3] it was 128 µM (≈ 520 µg/mL); in series [4], 32 µM (≈ 130 µg/mL); in series [5], 32 µM (≈ 130 µg/mL); in series [6], 32 µM (≈ 130 µg/mL).
